Among the data in ChEMBL document CHEMBL4483862, “Open-source discovery of chemical leads for next-generation chemoprotective antimalarials” (2018) are IC50 and IC90 values, retold here.

One may read the IC50 as the concentration that inhibits the measured activity by half. The IC90 is the point of the concentration-response curve where the effect stands at 90%.

The test system of the assay is Plasmodium berghei. Put plainly: Luciferase/luciferin-expressing antifolate-resistant parasites were used to infect a culture of HepG2 cells that were pre-incubated with compounds. Infected hepatocytes emit light due to the luciferase reaction. Assay results are presented as the percent inhibition of light emission compared to control. […]. Conditions: sporozoite; for IC90: read-out: LUCIFERASE INFECTION ASSAY - IC90. The class given is functional.

With `CC1C(c2ccccc2)N(C)C(c2ccccc2)CC1(O)c1ccc(F)cc1` (configuration not stated), the IC90 was over 8.01 µM. For the setting “PBLUC_HILL_SLOPE 3.61, PBLUC_R_SQUARED 0.228, read-out: LUCIFERASE INFECTION ASSAY - IC50”, the IC50 was 7.47 µM.

`COc1ccccc1N(C)S(=O)(=O)c1ccc(Cl)c(C(=O)Nc2cccc(C)n2)c1`: the IC90 came out at 2.83 µM. The IC50 (PBLUC_HILL_SLOPE 3.61, PBLUC_R_SQUARED 0.716, read-out: LUCIFERASE INFECTION ASSAY - IC50) is 1.54 µM.

Regarding `NC(=O)c1ccsc1NC(=O)Cc1ccc(-c2ccccc2)cc1`, the concentration for an effect of 90% (IC90) was 3.7 µM. In addition, under “PBLUC_HILL_SLOPE 3.68, PBLUC_R_SQUARED 0.581, read-out: LUCIFERASE INFECTION ASSAY - IC50”, the IC50 is 2.04 µM.

Consider `COc1cccc(NC(=O)N2CCc3nc(Nc4ccc(C(C)C)cc4)ncc3C2)c1`, for which the IC90 is over 7.9 µM. Moreover, the concentration for half-maximal inhibition (IC50) (PBLUC_HILL_SLOPE 3.71, PBLUC_R_SQUARED 0.181, read-out: LUCIFERASE INFECTION ASSAY - IC50) was 6.78 µM.

Take `COc1ccc(/C(C)=N/OCC(=O)O)cc1`: the IC90 is over 14.8 µM. Also, the IC50 (PBLUC_HILL_SLOPE 3.66, PBLUC_R_SQUARED 0.112, read-out: LUCIFERASE INFECTION ASSAY - IC50) is over 14.8 µM.

With `CC(=O)c1cccc(-c2cnc3cnc(-c4cccnc4)cn23)c1`, the IC90 was over 10.5 µM. The IC50 (PBLUC_HILL_SLOPE 3.62, PBLUC_R_SQUARED 0.754, read-out: LUCIFERASE INFECTION ASSAY - IC50) amounted to 6.77 µM.

In the case of `CC(NC(=O)c1ccccc1NC(=O)CN1CCN(C/C=C/c2ccccc2)CC1)c1ccccc1` (configuration not stated), the IC90 stood at 8.52 µM. Further, the IC50 (PBLUC_HILL_SLOPE 3.6, PBLUC_R_SQUARED 0.261, read-out: LUCIFERASE INFECTION ASSAY - IC50) stood at 4.62 µM.

In the case of `Cc1ccc2nc(NC(=O)c3ccc(Cl)cc3)c(C(=O)NC3CCCCC3)n2c1`, the IC90 was found to be 6.42 µM. The IC50 (PBLUC_HILL_SLOPE 3.64, PBLUC_R_SQUARED 0.503, read-out: LUCIFERASE INFECTION ASSAY - IC50) stood at 3.51 µM.

Regarding `Cc1ccc(C)c(-n2nnnc2SCC(=O)NC(=O)NC23CC4CC(CC(C4)C2)C3)c1`, the concentration for an effect of 90% (IC90) came out at 9.88 µM. Further, the IC50 (PBLUC_HILL_SLOPE 3.63, PBLUC_R_SQUARED 0.524, read-out: LUCIFERASE INFECTION ASSAY - IC50) came to 5.39 µM.

Take `O=C(Nc1nc2ccccn2c1C(=O)NC1CCCC1)c1c(F)cccc1F`: the IC90 was over 8.59 µM. Besides, the IC50 (PBLUC_HILL_SLOPE 3.61, PBLUC_R_SQUARED 0.639, read-out: LUCIFERASE INFECTION ASSAY - IC50) was 6.29 µM.

In the case of `CNC(=O)c1ccc(CN(C2CC2)S(=O)(=O)c2ccc(C)c(C)c2)cc1`, the IC90 was over 10 µM. Also, the IC50 (PBLUC_HILL_SLOPE 3.66, PBLUC_R_SQUARED 0.689, read-out: LUCIFERASE INFECTION ASSAY - IC50) amounted to 5.91 µM.

Regarding `O=c1cc(Nc2ccc(F)cc2)c2ccccc2o1`, the IC90 was 12.8 µM. Moreover, under “PBLUC_HILL_SLOPE 3.61, PBLUC_R_SQUARED 0.0806, read-out: LUCIFERASE INFECTION ASSAY - IC50”, the IC50 stood at 6.97 µM.

Turning to `CC(C)(C)c1ccc(C2=NNC(=NCCCN3CCOCC3)SC2)cc1`, the IC90 came out at 9.2 µM. In addition, the IC50 (PBLUC_HILL_SLOPE 3.6, PBLUC_R_SQUARED 0.412, read-out: LUCIFERASE INFECTION ASSAY - IC50) turned out to be 5 µM.

In the case of `CCOc1ccc(S(=O)(=O)/N=C2\C=C3N(CCO)CCOC3(O)c3ccccc32)cc1` (configuration not stated), the IC90 was over 10 µM. Further, the IC50 (PBLUC_HILL_SLOPE 3.7, PBLUC_R_SQUARED 0.815, read-out: LUCIFERASE INFECTION ASSAY - IC50) was 7.21 µM.

Take `CCCNC(=O)C1CN(C(=O)c2oc3ccccc3c2COc2ccccc2)c2ccccc2O1` (configuration not stated): the IC90 was over 10 µM. Also, the IC50 (PBLUC_HILL_SLOPE 3.71, PBLUC_R_SQUARED 0.44, read-out: LUCIFERASE INFECTION ASSAY - IC50) was 6.61 µM.

Regarding `CN(CC(=O)Nc1ccc(-c2nc3ccccc3[nH]2)cc1)S(=O)(=O)c1cccs1`, the IC90 is over 10 µM. For the same compound, the IC50 (PBLUC_HILL_SLOPE 3.6, PBLUC_R_SQUARED 0.614, read-out: LUCIFERASE INFECTION ASSAY - IC50) amounted to 8.33 µM.

Regarding `CNC(=O)CN(C)Cc1c(O)c(C(=O)NCc2ccccc2)cc2ccccc12`, the IC90 was over 10 µM. Moreover, the IC50 (PBLUC_HILL_SLOPE 3.62, PBLUC_R_SQUARED 0.233, read-out: LUCIFERASE INFECTION ASSAY - IC50) came out at 8.75 µM.

Turning to `CC1CCC(C(C)C)C(OCC(=O)NCc2ccc(NC(=O)c3ccco3)cc2)C1` (configuration not stated), the IC90 was over 10 µM. For the same compound, under “PBLUC_HILL_SLOPE 3.59, PBLUC_R_SQUARED 0.694, read-out: LUCIFERASE INFECTION ASSAY - IC50”, the half-maximal inhibitory concentration (IC50) came out at 6.09 µM.

For `CCCCNC(=O)c1c(NC(=O)c2cc(F)ccc2C)nc2ccccn12`, the IC90 was over 8.96 µM. The IC50 (PBLUC_HILL_SLOPE 3.71, PBLUC_R_SQUARED 0.517, read-out: LUCIFERASE INFECTION ASSAY - IC50) is 6.93 µM.

Consider `C=CCn1c(N)c(-c2nc3ccccc3[nH]2)c2nc3ccccc3nc21`, for which the IC90 is over 9.69 µM. Moreover, the IC50 (PBLUC_HILL_SLOPE 3.6, PBLUC_R_SQUARED 0.636, read-out: LUCIFERASE INFECTION ASSAY - IC50) was 5.99 µM.

`OCc1ccc(-c2cnc3cnc(-c4ccsc4)cn23)cc1`: the IC90 amounted to 8.46 µM. In addition, the IC50 (PBLUC_HILL_SLOPE 3.6, PBLUC_R_SQUARED 0.458, read-out: LUCIFERASE INFECTION ASSAY - IC50) was found to be 4.59 µM.

Take `O=C(Nc1nc2ccccc2[nH]1)c1ccc(-c2ccc(F)cc2)s1`: the IC90 was 5.74 µM. The IC50 (PBLUC_HILL_SLOPE 3.71, PBLUC_R_SQUARED 0.757, read-out: LUCIFERASE INFECTION ASSAY - IC50) stood at 3.18 µM.

For `CC(C)N1CCN(c2ccc(-c3cn4c(-c5cccc(O)c5)cnc4cn3)cc2)CC1`, the IC90 was over 7.98 µM. In addition, under “PBLUC_HILL_SLOPE 3.65, PBLUC_R_SQUARED 0.123, read-out: LUCIFERASE INFECTION ASSAY - IC50”, the IC50 was over 7.98 µM.

Regarding `CCN1CCN(c2cc(C(C)(C)C)nc3c(-c4ccccc4)cnn23)CC1`, the IC90 was over 9.08 µM. The IC50 (PBLUC_HILL_SLOPE 3.68, PBLUC_R_SQUARED 0.383, read-out: LUCIFERASE INFECTION ASSAY - IC50) came to 6.05 µM.

Turning to `CCOC(=O)c1sc(N)c(C#N)c1COC(=O)/C=C/c1cn(-c2ccccc2)nc1-c1ccc(C)cc1`, the IC90 was over 10 µM. In addition, the IC50 (PBLUC_HILL_SLOPE 3.64, PBLUC_R_SQUARED 0.326, read-out: LUCIFERASE INFECTION ASSAY - IC50) stood at 6.32 µM.

For the compound `Cc1cccc(-c2cn3c(-c4ccc(C#N)cc4)cnc3cn2)c1C`, the IC90 stood at 8.03 µM. The IC50 (PBLUC_HILL_SLOPE 3.65, PBLUC_R_SQUARED 0.571, read-out: LUCIFERASE INFECTION ASSAY - IC50) came out at 4.4 µM.

Take `COC(=O)c1cc(NC(=O)C(C)(C)Oc2ccc(Cl)cc2)ccc1F`: the IC90 was over 10 µM. In addition, where the note is “PBLUC_HILL_SLOPE 3.63, PBLUC_R_SQUARED 0.0477, read-out: LUCIFERASE INFECTION ASSAY - IC50”, the IC50 was over 10 µM.

`CCCn1c(NC(=O)c2ccc(OCc3c(C)noc3C)c(OC)c2)nc2ccccc21`: the IC90 was over 10 µM. Besides, where the note is “PBLUC_HILL_SLOPE 3.7, PBLUC_R_SQUARED 0.447, read-out: LUCIFERASE INFECTION ASSAY - IC50”, the IC50 came to 6.12 µM.

Consider `Oc1cc2[nH]c3ccccc3c2cc1CN1CCN(Cc2ccccc2)CC1`, for which the IC90 was over 10 µM. Where the note is “PBLUC_HILL_SLOPE 3.66, PBLUC_R_SQUARED 0.154, read-out: LUCIFERASE INFECTION ASSAY - IC50”, the IC50 amounted to 6.03 µM.

In the case of `CN(C)CCNC(=O)c1ccc(-c2cn3c(-c4cccc(OC(F)(F)F)c4)cnc3cn2)cc1`, the IC90 is over 7.03 µM. For the same compound, the IC50 (PBLUC_HILL_SLOPE 3.61, PBLUC_R_SQUARED 0.27, read-out: LUCIFERASE INFECTION ASSAY - IC50) was 5.86 µM.

For `Cc1cc(=O)nc(N/N=C/c2c(C)nn(-c3ccccc3)c2Oc2ccc(F)cc2)[nH]1`, the IC90 is over 10 µM. Moreover, the IC50 (PBLUC_HILL_SLOPE 3.64, PBLUC_R_SQUARED 0.538, read-out: LUCIFERASE INFECTION ASSAY - IC50) was found to be 6.15 µM.

For the compound `CCCN(CC(=O)Nc1cc(-c2ccccc2)sc1C(=O)OCC)Cc1nnc(-c2ccco2)o1`, the 90% effect concentration (IC90) was over 10 µM. Besides, for the setting “PBLUC_HILL_SLOPE 3.67, PBLUC_R_SQUARED 0.341, read-out: LUCIFERASE INFECTION ASSAY - IC50”, the half-inhibitory concentration (IC50) came to 7.32 µM.

In the case of `S=C(Nc1ccc(Cl)c(Cl)c1)N1c2ccccc2-n2cccc2C1c1cccnc1` (configuration not stated), the IC90 is 6.49 µM. The IC50 (PBLUC_HILL_SLOPE 3.68, PBLUC_R_SQUARED 0.381, read-out: LUCIFERASE INFECTION ASSAY - IC50) was 3.57 µM.

Regarding `O=C(NC1CC1)c1ccc(-c2cnn3c(NCc4ccc(F)cc4)ccnc23)cc1`, the IC90 was over 8.22 µM. Where the note is “PBLUC_HILL_SLOPE 3.6, PBLUC_R_SQUARED 0.311, read-out: LUCIFERASE INFECTION ASSAY - IC50”, the IC50 turned out to be 4.82 µM.

In the case of `CN(C)CC(=O)N1CCN(c2nc(/C=C/c3ccccc3)nc3sc4c(c23)CCCC4)CC1`, the concentration for an effect of 90% (IC90) turned out to be 5.01 µM. Moreover, the IC50 (PBLUC_HILL_SLOPE 3.64, PBLUC_R_SQUARED 0.565, read-out: LUCIFERASE INFECTION ASSAY - IC50) worked out at 2.74 µM.

On to `FC(F)(F)c1cc(NCc2ccccc2Cl)nc(-c2ccccn2)n1`, for which the IC90 is 6.29 µM. The IC50 (PBLUC_HILL_SLOPE 3.68, PBLUC_R_SQUARED 0.577, read-out: LUCIFERASE INFECTION ASSAY - IC50) was determined as 3.46 µM.
